Data: the supplement of paper PMC10307832

The cell lines below were run with CC(C)CCN1c2nc(Nc3cc(F)c(O)c(F)c3)ncc2N(C)C(=O)C1C [BI-D1870] + Cc1nc(NC(=O)N2CCC[C@H]2C(N)=O)sc1-c1ccnc(C(C)(C)C(F)(F)F)c1 [Alpelisib] (partner 2 µM) (assay: relative viability (nuclei count vs DMSO), 5 days (fraction); higher = more cells survive). Details: first compound 4 µM.
Summary of the method: (§1)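 Lung cancer cell lines were pin-tool dosed in 1536-well plates on the day after seeding, with either a lone drug or a fixed anchor-drug dose plus five library-drug doses (not always all listed) in √10 steps. Nuclei were counted on 4× images after 5 days. Relative viability is the ratio of treated-well to vehicle-well nuclei counts, with each value a median of duplicate plates.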

| Cell Line | relative viability |
| --- | --- |
| CAL-12T | 0.793 |
| NCI-H1651 | 0.941 |
| EPLC-272H | 0.953 |

The cell lines below were run with O=c1ncccn1[C@@H]1O[C@H](CO)[C@@H](O)[C@H]1O [Zebularine] + C[C@]1(O)C[C@@H](c2nc(-c3ccc4ccc(-c5ccccc5)nc4c3)c3c(N)nccn32)C1 [Linsitinib] (partner 1 µM) in the same assay as above. Details: first compound 1 µM.
Summary of the method: as §1

| Cell Line | relative viability |
| --- | --- |
| LOU-NH91 | 0.893 |
| NCI-H2405 | 0.891 |
| HOP-62 | 1.05 |
| HCC-44 | 0.77 |
| LU99A | 0.66 |
| BEN | 0.911 |
| HARA | 1.01 |
| NCI-H322M | 0.945 |
| LCLC-97TM1 | 0.192 |
| NCI-H2009 | 1.17 |
| A-427 | 1.12 |
| NCI-H441 | 0.581 |
| NCI-H661 | 0.499 |
| NCI-H1734 | 0.917 |
| NCI-H460 | 1.21 |
| NCI-H2347 | 1.04 |
| SK-LU-1 | 1.21 |
| NCI-H1395 | 1.03 |
| 201T | 1.13 |
| NCI-H1915 | 1.09 |
| HCC-827 | 0.974 |
| LXF-289 | 1.08 |
| NCI-H23 | 0.671 |
| NCI-H647 | 1.42 |
| CAL-12T | 0.819 |
| NCI-H1651 | 1 |
| EPLC-272H | 1.62 |

Same assay, conditions: first compound 3.162 µM

| Cell Line | relative viability |
| --- | --- |
| LOU-NH91 | 0.963 |
| NCI-H2405 | 0.918 |
| HOP-62 | 0.848 |
| HCC-44 | 0.655 |
| LU99A | 0.529 |
| BEN | 0.777 |
| HARA | 0.923 |
| NCI-H322M | 0.902 |
| LCLC-97TM1 | 0.168 |
| NCI-H2009 | 1.15 |
| A-427 | 1.08 |
| NCI-H441 | 0.548 |
| NCI-H661 | 0.541 |
| NCI-H1734 | 0.87 |
| NCI-H460 | 1.06 |
| NCI-H2347 | 0.99 |
| SK-LU-1 | 0.936 |
| NCI-H1395 | 1.09 |
| 201T | 1.02 |
| NCI-H1915 | 1.08 |
| HCC-827 | 1.01 |
| LXF-289 | 0.977 |
| NCI-H23 | 0.549 |
| NCI-H647 | 1.06 |
| CAL-12T | 0.794 |
| NCI-H1651 | 0.893 |

Same assay, conditions: first compound 10 µM

| Cell Line | relative viability |
| --- | --- |
| LOU-NH91 | 0.868 |
| NCI-H2405 | 0.873 |
| HOP-62 | 0.557 |
| HCC-44 | 0.466 |
| LU99A | 0.437 |
| BEN | 0.432 |
| NCI-H322M | 0.721 |
| LCLC-97TM1 | 0.144 |
| NCI-H2009 | 1.03 |
| A-427 | 0.855 |
| NCI-H441 | 0.291 |
| NCI-H661 | 0.58 |
| NCI-H1734 | 0.526 |
| NCI-H460 | 0.272 |
| NCI-H2347 | 0.854 |
| SK-LU-1 | 0.588 |
| NCI-H1395 | 0.869 |
| 201T | 1.05 |
| NCI-H1915 | 1.07 |
| HCC-827 | 0.941 |
| LXF-289 | 0.96 |
| NCI-H647 | 0.426 |
| CAL-12T | 0.716 |

Same assay, conditions: first compound 31.62 µM

| Cell Line | relative viability |
| --- | --- |
| LOU-NH91 | 0.876 |
| NCI-H2405 | 0.77 |
| HOP-62 | 0.188 |
| HCC-44 | 0.577 |
| LU99A | 0.344 |
| BEN | 0.384 |
| HARA | 0.968 |
| NCI-H322M | 0.849 |
| LCLC-97TM1 | 0.128 |
| NCI-H2009 | 0.984 |
| A-427 | 0.513 |
| NCI-H441 | 0.249 |
| NCI-H661 | 0.539 |
| NCI-H1734 | 0.532 |
| NCI-H460 | 0.388 |
| NCI-H2347 | 0.724 |
| SK-LU-1 | 0.611 |
| NCI-H1395 | 0.653 |
| 201T | 1.09 |
| NCI-H1915 | 1.09 |
| HCC-827 | 0.757 |
| LXF-289 | 0.78 |
| NCI-H23 | 0.646 |
| NCI-H647 | 0.172 |
| CAL-12T | 0.896 |
| NCI-H1651 | 0.904 |
| EPLC-272H | 1.05 |

Same assay, conditions: first compound 100 µM

| Cell Line | relative viability |
| --- | --- |
| LOU-NH91 | 0.629 |
| NCI-H2405 | 0.643 |
| HOP-62 | 0.118 |
| HCC-44 | 0.218 |
| LU99A | 0.169 |
| BEN | 0.308 |
| HARA | 0.623 |
| NCI-H322M | 0.685 |
| LCLC-97TM1 | 0.11 |
| NCI-H2009 | 0.386 |
| A-427 | 0.256 |
| NCI-H441 | 0.234 |
| NCI-H661 | 0.633 |
| NCI-H1734 | 0.333 |
| NCI-H460 | 0.0365 |
| NCI-H2347 | 0.478 |
| SK-LU-1 | 0.564 |
| NCI-H1395 | 0.533 |
| 201T | 1.04 |
| NCI-H1915 | 0.94 |
| HCC-827 | 0.361 |
| LXF-289 | 0.289 |
| NCI-H23 | 0.548 |
| NCI-H647 | 0.17 |
| CAL-12T | 0.464 |
| NCI-H1651 | 0.465 |
